From patent US12578336B2, “ATP detection” (Promega Corporation, priority 2022, dated 2026)
“Also recorded” adds a separate entry of the source.

T1: ENPP1 (Homo sapiens, UniProt P22413)
T1 sequence (P22413 1-925): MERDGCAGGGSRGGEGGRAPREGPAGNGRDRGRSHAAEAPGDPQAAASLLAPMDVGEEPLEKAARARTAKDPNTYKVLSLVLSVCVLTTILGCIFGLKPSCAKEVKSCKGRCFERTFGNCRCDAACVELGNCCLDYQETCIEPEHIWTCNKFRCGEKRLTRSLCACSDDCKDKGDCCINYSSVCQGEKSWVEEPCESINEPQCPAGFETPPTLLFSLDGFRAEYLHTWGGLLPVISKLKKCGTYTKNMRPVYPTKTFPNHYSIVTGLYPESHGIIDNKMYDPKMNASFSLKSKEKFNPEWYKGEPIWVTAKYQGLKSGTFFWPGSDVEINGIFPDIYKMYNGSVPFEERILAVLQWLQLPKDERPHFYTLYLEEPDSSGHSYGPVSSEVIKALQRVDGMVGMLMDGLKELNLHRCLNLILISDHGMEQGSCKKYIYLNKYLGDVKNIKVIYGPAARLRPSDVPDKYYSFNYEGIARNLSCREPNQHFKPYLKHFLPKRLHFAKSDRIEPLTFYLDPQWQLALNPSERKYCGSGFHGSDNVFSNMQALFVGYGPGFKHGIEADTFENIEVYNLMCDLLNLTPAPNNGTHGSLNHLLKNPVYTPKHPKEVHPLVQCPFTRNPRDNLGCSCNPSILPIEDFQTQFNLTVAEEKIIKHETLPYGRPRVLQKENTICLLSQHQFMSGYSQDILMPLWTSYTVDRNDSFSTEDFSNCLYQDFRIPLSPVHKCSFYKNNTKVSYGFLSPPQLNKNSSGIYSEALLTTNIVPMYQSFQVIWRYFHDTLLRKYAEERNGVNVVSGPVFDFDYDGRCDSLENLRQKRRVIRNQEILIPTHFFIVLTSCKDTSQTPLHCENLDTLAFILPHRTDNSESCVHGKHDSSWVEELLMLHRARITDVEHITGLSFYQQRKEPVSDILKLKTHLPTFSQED


Assays:
Pp-apyrase [1] = biological target: T2, Pp-apyrase (Phlebotomus papatasi, UniProt Q9GTP7); assay: Inhibition of Pp-apyrase by EGTA in cartridge format; format: biochemical; conditions: EGTA in lysis/ATP detection reagent, after an initial ATP elimination step
T2 construct: GST (glutathione S transferase); made in house; host or cells: E. coli
Protocol: Apyrase from the sandfly Phlebotomus papatasi (Pp-apyrase) was also characterized for use in an exemplary cartridge format. […] Empty plastic cartridges were obtained from Empire Bio Diagnostics. […] 20 second exposures of ATP in swab tips were followed by immersion of the swab tips in the cartridge receptacle in the ATP detection/cell lysis formulation with 10 mM EGTA described for FIG. 6, and then insertion of the cartridge receptacle in a handheld luminometer (luminometer prototype by Empire Bio Diagnostics). […] A portion of the values shown above the vertical axis represent luminescent values too low to be visible as bars on the graph.

[2] = tested on: St-apyrase (Ca2+/Mg2+ apyrase from potato); assay: Inhibition of St-apyrase by EGTA, luminescence over time; format: biochemical, Solanum tuberosum; conditions: same amount of EGTA; luminescence declined over time
From the text: (§1) The Ca^2+/Mg^2+ apyrase from potato, Solanum tuberosum (St-apyrase), is the most commonly used apyrase for ATP elimination. However, its inactivation requires measures, such as high temperature or extreme pH treatment, which are incompatible with the simple cartridge design disclosed here. The need for an extended heating time for apyrase inactivation is also incompatible with the goal of rapid sample collection and analysis. […] Cl- and St-apyrase were compared for their capacity to remove extracellular ATP and to be inhibited by the Ca^2+-selective chelator EGTA. Mg^2+ is critical for luciferase activity so the Mg^2+-selective chelator EDTA was not tested. In the absence of EGTA, both enzymes eliminated ATP as indicated by a time-dependent decrease in luminescence (FIG. 3).

Cl-apyrase (Ca-apyrase) = biological target: T3, Cl-apyrase (Ca-apyrase) (Cimex lectularius, UniProt O96559); assay: Inhibition of Cl-apyrase by EGTA, luminescence over time; format: biochemical; conditions: EGTA present; decline of luminescence over time
T3 construct: His tag; made in house; host or cells: E. coli
From the text: as §1

ENPP1 = biological target: T1, ENPP1; assay: ENPP1 ATP degradation and its inhibition by chelators/inhibitor, Kinase-Glo; format: biochemical
Protocol: ENPP1 converts ATP to AMP and pyrophosphate, is zinc-dependent, and is inactivated by EGTA, by the zinc chelator N,N,N′,N′-Tetrakis (2 pyridylmethyl) ethylenediamine (TPEN), and by certain small molecule inhibitors.
ENPP1 (100 ng/reaction) was incubated with 10 μM ATP and varying amounts of chelators (EGTA, TPEN) or an ENPP1 selective inhibitor called inhibitor C in a reaction buffer containing 50 mM Tris HCl, pH 7.5, 250 mM NaCl, 5 uM ZnCl2, 0.1 mg/ml BSA. The reactions were allowed to proceed for 60 minutes.

Pp-apyrase [3] = biological target: T2, Pp-apyrase; assay: Inactivation of Pp-apyrase by EGTA in cell lysis/ATP detection reagent, tube format; format: biochemical; conditions: 10 mM EGTA in cell lysis/ATP detection reagent
Protocol: Luminescent signals were measured over time starting immediately after addition of the lysis/ATP detection reagent. Reactions were performed in microcentrifuge-style tubes and analyzed for luminescence on a single tube reading luminometer (GloMax® 20/20, Promega Corp.).
Reactions were performed in microcentrifuge-style tubes and analyzed for luminescence on a single tube reading luminometer (GloMax® 20/20, Promega Corp.).

T2 sequence (Q9GTP7 22-336 limits assumed): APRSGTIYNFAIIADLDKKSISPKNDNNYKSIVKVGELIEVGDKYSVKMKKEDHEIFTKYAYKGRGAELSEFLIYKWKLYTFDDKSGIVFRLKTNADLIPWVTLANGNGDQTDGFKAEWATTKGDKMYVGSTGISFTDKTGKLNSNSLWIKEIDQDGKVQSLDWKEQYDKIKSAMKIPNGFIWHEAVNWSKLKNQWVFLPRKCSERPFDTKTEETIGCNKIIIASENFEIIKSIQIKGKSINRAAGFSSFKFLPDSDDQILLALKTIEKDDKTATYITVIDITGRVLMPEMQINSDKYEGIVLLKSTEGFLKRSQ
T3 sequence (O96559 36-364 limits assumed): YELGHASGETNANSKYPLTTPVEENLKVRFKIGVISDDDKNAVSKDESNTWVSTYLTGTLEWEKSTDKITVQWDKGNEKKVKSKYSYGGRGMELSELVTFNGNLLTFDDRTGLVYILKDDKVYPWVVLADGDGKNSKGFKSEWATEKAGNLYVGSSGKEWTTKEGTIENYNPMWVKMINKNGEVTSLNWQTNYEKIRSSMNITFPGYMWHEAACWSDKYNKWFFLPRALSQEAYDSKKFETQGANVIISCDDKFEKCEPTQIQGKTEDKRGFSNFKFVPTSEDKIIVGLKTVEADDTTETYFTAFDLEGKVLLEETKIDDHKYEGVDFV

Row | Molecule | inhibition of Pp-apyrase in cartridge format (in words) (Pp-apyrase [1]) | St-apyrase inhibition in the presence of EGTA (in words) [2] | Cl-apyrase activity in the presence of EGTA (in words) (Cl-apyrase (Ca-apyrase)) | inactivation of ENPP1 (in words) (ENPP1) | inactivation of Pp-apyrase (in words) (Pp-apyrase [3]) | conditionally active ATP eliminating properties (in words) (ENPP1; ENPP1 100 ng/reaction, 10 μM ATP, 60 minutes, 5 uM ZnCl2)
1 | O=C(O)CN(CCOCCOCCN(CC(=O)O)CC(=O)O)CC(=O)O [EGTA] | effective | only partially inhibited | no Cl-apyrase activity was detected; also recorded: substantially inactivated | inactivated | effectively inactivated; also recorded: substantially inactivated | 
2 | c1ccc(CN(CCN(Cc2ccccn2)Cc2ccccn2)Cc2ccccn2)nc1 [TPEN, N,N,N′,N′-Tetrakis (2 pyridylmethyl) ethylenediamine] |  |  |  | inactivated |  | 
3 | ENPP1: zinc-dependent enzyme that converts ATP to AMP and pyrophosphate (protein, UniProt P22413 1-925, looked up) Ectonucleotide …: MERDGCAGGGSRGGEGGRAPREGPAGNGRDRGRSHAAEAPGDPQAAASLLAPMDVGEEPLEKAARARTAKDPNTYKVLSLVLSVCVLTTILGCIFGLKPSCAKEVKSCKGRCFERTFGNCRCDAACVELGNCCLDYQETCIEPEHIWTCNKFRCGEKRLTRSLCACSDDCKDKGDCCINYSSVCQGEKSWVEEPCESINEPQCPAGFETPPTLLFSLDGFRAEYLHTWGGLLPVISKLKKCGTYTKNMRPVYPTKTFPNHYSIVTGLYPESHGIIDNKMYDPKMNASFSLKSKEKFNPEWYKGEPIWVTAKYQGLKSGTFFWPGSDVEINGIFPDIYKMYNGSVPFEERILAVLQWLQLPKDERPHFYTLYLEEPDSSGHSYGPVSSEVIKALQRVDGMVGMLMDGLKELNLHRCLNLILISDHGMEQGSCKKYIYLNKYLGDVKNIKVIYGPAARLRPSDVPDKYYSFNYEGIARNLSCREPNQHFKPYLKHFLPKRLHFAKSDRIEPLTFYLDPQWQLALNPSERKYCGSGFHGSDNVFSNMQALFVGYGPGFKHGIEADTFENIEVYNLMCDLLNLTPAPNNGTHGSLNHLLKNPVYTPKHPKEVHPLVQCPFTRNPRDNLGCSCNPSILPIEDFQTQFNLTVAEEKIIKHETLPYGRPRVLQKENTICLLSQHQFMSGYSQDILMPLWTSYTVDRNDSFSTEDFSNCLYQDFRIPLSPVHKCSFYKNNTKVSYGFLSPPQLNKNSSGIYSEALLTTNIVPMYQSFQVIWRYFHDTLLRKYAEERNGVNVVSGPVFDFDYDGRCDSLENLRQKRRVIRNQEILIPTHFFIVLTSCKDTSQTPLHCENLDTLAFILPHRTDNSESCVHGKHDSSWVEELLMLHRARITDVEHITGLSFYQQRKEPVSDILKLKTHLPTFSQED |  |  |  |  |  | qualitatively demonstrated the conditionally active ATP eliminating properties
